Laboratory results as given in EP3485891A1, “WOUND TREATMENT COMPOSITION CONTAINING ULDAVIOSIDE A COMPOUND” (Elcubio Co., Ltd., priority 2016, dated 2018).

Key:
[1] = system: hack-induced animal tissue; assay: Histological change of hack wound tissue (H&E stain, Masson's trichrome stain); type: in vivo, Sprague-Dawley white rats
Procedure: In order to investigate a hack healing effect of the uldavioside A compound of the present invention, a histological change was observed using the hack-induced animal tissue.
The collected tissue was fixed by treatment with 10% formalin for 24 hours. The fixed tissue was embedded with paraffin, and cut into a 5 µm thickness to obtain tissue sections. The tissue sections were deparaffinized, hydrated, and washed, and then subjected to hematoxylin & eosin stain or Masson's trichrome stain.
Masson's trichrome stain is used to investigate collagen in the tissue, and collagenosis means that the wound in the dermis healed and the functions of the tissue were restored.

[2] = system: β-catenin; assay: Immunohistochemistry of hack wound tissue sections; type: in vivo, Sprague-Dawley white rats; conditions: IHC, tissue sections on day 10, compared with the control, FIG. 7B
Source text: (§1) In order to investigate a hack healing effect of the uldavioside A compound of the present invention, the expression changes of proteins associated with angiogenesis and tissue regeneration were observed.
(§2) The tissue sections on day 10, which were fabricated in Experimental Example 4-2 above, were deparaffinized, hydrated, and washed, and were then subjected to immunohistochemistry (IHC) using antibodies of vascular endothelial growth factor (VEGF) and CD31, which are proteins associated with angiogenesis in tissue, and basic fibroblast growth factor (bFGF) and β-catenin, which are proteins associated with tissue regeneration.

[3] = system: CD31; assay: Immunohistochemistry of hack wound tissue sections; type: in vivo, Sprague-Dawley white rats; conditions: IHC, tissue sections on day 10, compared with the control, FIG. 7A
Source text: as §1, §2

[4] = system: bFGF; assay: Immunohistochemistry of hack wound tissue sections; type: in vivo, Sprague-Dawley white rats; conditions: IHC, tissue sections on day 10, compared with the control, FIG. 7B
Source text: as §1, §2

[5] = system: VEGF; assay: Immunohistochemistry of hack wound tissue sections; type: in vivo, Sprague-Dawley white rats; conditions: IHC, tissue sections on day 10, compared with the control, FIG. 7A
Source text: as §1, §2

[6] = system: C2C12 cells; assay: Cytoprotective activity against glucose oxidative stress in high-glucose environment (MTT); type: cell-based; conditions: 50 mM D-glucose, 10 µM and 20 µM, 7 mU/mℓ glucose oxidase, 24 hours, FIG. 8B
Procedure: (§3) In order to investigate the activity of the uldavioside A compound of the present invention, animal cells were incubated. Here, C212 cells, as myoblasts, and NIH3T3 cells and human diploid fibroblasts (HDFs), as fibroblasts, were used as the animal cells. Each type of cells were incubated in a 5% CO2 incubator containing Dulbecco's modified eagle's medium (DMEM) supplemented with 10% fetal bovine serum (FBS), 100 U/mℓ penicillin, and 100 µg/mℓ streptomycin at 37 °C.
(§4) The cytoprotective activity of the uldavioside A compound of the present invention against glucose oxidative stress was investigated.
(§5) The C2C12 cells and HDF cells incubated in Experimental Example 1 were dispensed at 1×10^5 per well in a 48-well plate, respectively, and then incubated for 24 hours. Thereafter, each well was treated with 50 mM D-glucose to create a high-glucose environment. Then, the cells were treated with the uldavioside A compound at 10 µM and 20 µM, and after 1 hour, were treated with 7 mU/mℓ glucose oxidase, followed by incubation for 24 hours. Here, non-treated C2C12 or HDF cells were used as control 1, high-glucose state cells were used as control 2, and high-glucose state cells treated with glucose oxidase were used as control 3. […] Thereafter, the culture liquid was removed and the formed formazan precipitate was dissolved in 200 µℓ of DMSO, and then the absorbance was measured at 570 nm.

[7] = system: HDF cells; assay: as above; type: cell-based, human; conditions: 50 mM D-glucose, 10 µM and 20 µM, 7 mU/mℓ glucose oxidase, 24 hours, FIG. 8A
Procedure: as §3, §4, §5

[8] = system: C2C12 cells; assay: Wound healing (scratch) assay under inflammatory stress (LPS); type: cell-based; conditions: 10 µM, 1 hour pre-incubation, then 10 µg/mℓ LPS, 0, 12, 24 hours, compared with the controls (LPS only), FIG. 3A, 3B
Procedure: as §3
(§6) In order to investigate a wound healing effect according to the treatment with the uldavioside A compound of the present invention, a wound healing assay was conducted.
(§7) The C2C12 and NIH3T3 cells incubated in Experimental Example 1 above were dispensed at 1×10^6 cells per well in a 12-well plate, and then stabilized through incubation for 24 hours. Thereafter, DMEM medium containing 0.5% FBS, 100 U/mℓ penicillin, and 100 µg/mℓ streptomycin was placed therein, and then the cells were incubated for 18 hours. After the 18-hour incubation, a scratch with about 0.9 mm was made in the center of each well with growing cells, and the cells were treated with a 10 µM uldavioside A compound, followed by pre-incubation for 1 hour. After 1 hour, the cells were treated with 10 µg/mℓ lipopolysaccharide (LPS) for inflammatory stress stimulation, and then migration of the cells was observed while the cells were incubated. […]

[9] = system: NIH3T3 cells; assay: as above; type: cell-based; conditions: 10 µM, 1 hour pre-incubation, then 10 µg/mℓ LPS, 0, 12, 24 hours, compared with the controls (LPS only), FIG. 3C, 3D, migration activity higher than in C2C12
Procedure: as §3, §6, §7

[10] = system: C2C12 cells; assay: MTT assay, cytotoxicity; type: cell-based; conditions: 1 µM and 10 µM, 24 hours
Procedure: as §3
(§8) The cytotoxicity of the uldavioside A compound of the present invention was investigated using a 3-(4,5-dimethylthiazol-2-yl)-2,5-diphenyltetrazolium bromide (MTT) assay.
(§9) The C2C12 and NIH3T3 cells incubated in Experimental Example 1 above were dispensed at 1×10^5 cells per well in a 48-well plate and then incubated for 24 hours. Thereafter, DMEM medium containing 0.5% FBS, 100 U/mℓ penicillin, and 100 µg/mℓ streptomycin was placed therein, and then the cells were incubated for 18 hours. After the 18-hour incubation, the cells were treated with an uldavioside A compound at 1 µM and 10 µM and then incubated for 24 hours. Here, non-treated C2C12 and NIH3T3 cells were used as controls. After 24 hours, the cells were treated with an MTT solution at 100 µg/mℓ and incubated at 37 °C for 3 hours. Thereafter, the culture liquid was removed and the formed formazan precipitate was dissolved in 200 µℓ of dimethyl sulfoxide (DMSO), and then the absorbance was measured at 570 nm.

[11] = system: NIH3T3 cells; assay: MTT assay, cytotoxicity; type: cell-based; conditions: 1 µM and 10 µM, 24 hours
Procedure: as §3, §8, §9

[12] = system: C2C12 cells; assay: Wound healing (scratch) assay under glucose oxidative stress (glucose oxidase); type: cell-based; conditions: 10 µM, 7 mU/mℓ glucose oxidase, compared with the controls, FIG. 4A, 4B
Procedure: as §3
(§10) The C2C12 and NIH3T3 cells incubated in Experimental Example 1 above were dispensed at 1×10^6 cells per well in a 12-well plate, and then stabilized through incubation for 24 hours. Thereafter, DMEM medium containing 0.5% FBS, 100 U/mℓ penicillin, and 100 µg/mℓ streptomycin was placed therein, and then the cells were incubated for 18 hours. After the 18-hour incubation, a scratch with about 0.9 mm was made in the center of each well with growing cells, and the cells were treated with a 10 µM uldavioside A compound, followed by pre-incubation for 1 hour. […] Here, at 0, 12, and 24 hours, the cells were fixed with a fixative (2% formaldehyde and 0.2% glutaraldehyde) and stained with 0.3% crystal violet, and then, the migration of the cells was checked using a microscope, and the reduction in area due to the migration of the cells into a wounded site. […]

[13] = system: NIH3T3 cells; assay: as above; type: cell-based; conditions: 10 µM, 7 mU/mℓ glucose oxidase, compared with the controls, FIG. 4, migration activity higher than in C2C12
Procedure: as §3, §10

[14] = system: diabetes-induced animal models; assay: Diabetic ulcer healing, circular cut in streptozotocin-induced diabetic rats; type: in vivo, Sprague-Dawley white rats; conditions: dorsal circular cut 1 or 1.5 cm, ointment containing 0.025 wt%, topical, 8 days at intervals of 2 days, compared with the control, FIG. 9
Procedure: In order to investigate a diabetic ulcer healing effect of the uldavioside A compound of the present invention, an animal experiment was conducted.
7-week-old Sprague-Dawley white rats with a body weight of about 300 g were intraperitoneally injected with 60 mg/kg streptozotocin to induce diabetes. After three days, only white rates with a blood glucose level of 300 mg/dℓ or higher were selected by collecting venous blood from the tail vein and measuring the glucose level using a blood glucose meter. The dorsal part of each of the selected white rats was shaved, and a circular cut with a diameter of 1 or 1.5 cm was made on the dorsal part 4-5 cm away from the ear using a puncher. After the circular cut was made, the white rats were randomly assigned and divided into a control treated without the uldavioside A compound of the present invention and a treatment group. For the treatment group, on the day of circular cut induction, the cut was treated with an ointment containing 0.025 wt% of the uldavioside A compound (Preparation Example 1-2 below), wrapped with sterilized Korean traditional paper, and fixed with a band and a bandage to maintain a wet environment. For the control, the cut was treated with an ointment not containing the uldavioside A compound.

[15] = system: Sprague-Dawley white rats; assay: Full-thickness hack wound healing, visual observation and wound size quantification; type: in vivo; conditions: rat hind leg, 3 cm-diameter full-thickness hack, ointment containing 0.025 wt%, topical; days 3, 7, 10, 14; compared with the control (ointment without compound), FIG. 5
Procedure: In order to investigate a wound healing effect of the uldavioside A compound of the present invention, an animal experiment was conducted.
A hind leg of 7-8 week-old Sprague-Dawley white rats was shaved, and disinfected with 70% alcohol, and then a 3 cm-diameter circular full-thickness hack was made. After the full-thickness hack was made, the rats were randomly assigned and divided into a control treated without the uldavioside A compound of the present invention and a treatment group. For the treatment group, on the day of hack induction, the wound was treated with an ointment (Preparation Example 1-2 below) containing 0.025 wt% of the uldavioside A compound, wrapped with sterilized Korean traditional paper, and fixed with a band and a bandage to maintain a wet environment. For the control, the wound was treated with an ointment not containing the uldavioside A compound. Thereafter, on days 3, 7, 10, and 14 of wound induction, the wound site was observed, and the size of the wound site was quantified.

OCC1(O)COC(Oc2cc(O)cc3c2CC(O)C(c2ccc(O)c(O)c2)O3)C1O (stereo not drawn) [uldavioside A compound, uldavioside A]
inflow of immune cells ([1]; H&E stain, day 3 after hack induction, ointment 0.025 wt%, FIG. 6(A)): reduced | angiogenesis and granulation tissues formation ([1]; H&E stain, day 7 after hack induction, ointment 0.025 wt%, FIG. 6(A)): actively progressing | proliferation of fibroblasts ([1]; H&E stain, day 10 after hack induction, ointment 0.025 wt%, FIG. 6(A)): active proliferation of fibroblasts were observed | amount of collagen stained ([1]; Masson's trichrome stain, day 7 after hack induction, compared with the control, FIG. 6(B)): remarkably increased | collagenosis ([1]; Masson's trichrome stain, day 17, FIG. 6(B)): collagenosis in most tissues | expression level of β-catenin [2]: significantly increased | expression level of CD31 [3]: significantly increased | expression level of bFGF [4]: significantly increased | expression level of VEGF [5]: significantly increased | reduction in cell viability by glucose oxidative stress [6]: inhibited in a dose-dependent manner | reduction in cell viability by glucose oxidative stress [7]: inhibited in a dose-dependent manner | cell migration [8]: increased | cell migration [9]: increased | cytotoxicity ([10]; MTT): no cytotoxicity | cell viability ([10]; compared with the controls (non-treated cells), FIG. 2A): increased | cytotoxicity ([11]; MTT): no cytotoxicity | cell viability ([11]; compared with the controls (non-treated cells), FIG. 2B): increased | cell migration [12]: increased | cell migration [13]: increased | wound site (wound size) [14]: started healing from day 4 and the wound size remarkably decreased | wound site (size of the wound site) [15]: started healing from day 7, and almost healed on day 14
